Values of other authors, collected in patent US20230255882A1, “LONG-LASTING RESORBABLE SUBCUTANEOUS IMPLANT WITH SUSTAINED RELEASE OF PRE-CONCENTRATED PHARMACOLOGICALLY ACTIVE SUBSTANCE IN POLYMER FOR THE TREATMENT OF PARKINSONS DISEASE” (priority 2020, published 2023).

System: Parkinson's disease
Settings: intramuscular injection, 25 mg twice a week

NC(=O)C1=CN([C@@H]2O[C@H](COP(=O)(O)OP(=O)(O)OC[C@H]3O[C@@H](n4cnc5c(N)ncnc54)[C@H](OP(=O)(O)O)[C@@H]3O)[C@@H](O)[C@H]2O)C=CC1 [NADPH]
motor symptoms: significant improvement in motor symptoms
